Here are results for 5 substances from US9833497B2, “Human originated EGF domain proteins and use of the same” (CHENGDU SOURCEBIO LIMITED-LIABILITY COMPANY, priority 2013, dated 2017).

Format in all cases: cell-based
In one experiment the test system is E. coli DH5α. Put plainly: Antibacterial activity: MIC and growth curve against E. coli DH5α in 96-well plate. Conditions: minimal inhibitory concentration against E. coli DH5α; 96-well plate, 5×10^5 CFU/mL, 37° C., judged after 8 h. Put shortly:
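MIC taken as lowest protein level with no bacterial growth, tracked by A600 every 30 min during 37 °C, 175 rpm culture. Two-fold protein series 50-12.5 μg/mL final, triplicate wells, against 5×10^5 CFU/mL of LB-washed mid-log cells.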

For a further experiment, the system named is E. coli BL21. Put plainly: MIC against Gram-negative bacteria: E. coli BL21. Conditions: for MIC (μg/mL) E. coli BL21 / MIC against E. coli BL21: 96-well plate, 5×10^5 CFU/mL, 37° C., 10 h. The gist of the method: (§1)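 Purified recombinant human EGF domain proteins are tested by broth dilution in LB against a 5×10^5 CFU/mL inoculum, with two-fold serial dilutions run in triplicate. Plates are incubated at 37° C with shaking, and the MIC is read as the lowest protein concentration without growth.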

The subject of a further experiment is Pseudomonas aeruginosa. In words: MIC against Gram-negative bacteria: Pseudomonas aeruginosa. Conditions: for MIC (μg/mL) P. aeruginosa / MIC against P. aeruginosa: 96-well plate, 5×10^5 CFU/mL, 37° C., 10 h. The gist of the method: as §1
In a further experiment the test system is Klebsiella pneumonia. In words: MIC against Gram-negative bacteria: Klebsiella pneumonia. As to conditions: for MIC (μg/mL) K. pneumonia / MIC against K. pneumonia: 96-well plate, 5×10^5 CFU/mL, 37° C., 10 h. The gist of the method:
as §1

In the next experiment the test system is Enterobacter cloacae. In words: MIC against Gram-negative bacteria: Enterobacter cloacae. Conditions: for MIC (μg/mL) E. cloacae / MIC against E. cloacae: 96-well plate, 5×10^5 CFU/mL, 37° C., 10 h. Put shortly: as §1
In another experiment the test system is Aeromonas hydrophila. Put plainly: MIC against Gram-negative bacteria: Aeromonas hydrophila. As to conditions: for MIC (μg/mL) A. hydrophila / MIC against A. hydrophila: 96-well plate, 5×10^5 CFU/mL, 37° C., 10 h. The gist of the method:
as §1

In the next experiment the test system is Citrobacter diversus. Put plainly: MIC against Gram-negative bacteria: Citrobacter diversus. Conditions: for MIC (μg/mL) C. diversus / MIC against C. diversus: 96-well plate, 5×10^5 CFU/mL, 37° C., 10 h. Put shortly: as §1
A further experiment relates to Moraxella catarrhalis. In words: MIC against Gram-negative bacteria: Moraxella catarrhalis. Conditions: for MIC (μg/mL) M. catarrhalis / MIC against M. catarrhalis: 96-well plate, 5×10^5 CFU/mL, 37° C., 10 h. Put shortly:
as §1

A further experiment concerns Proteus mirabilis. In words: MIC against Gram-negative bacteria: Proteus mirabilis. As to conditions: for MIC (μg/mL) P. mirabilis / MIC against P. mirabilis: 96-well plate, 5×10^5 CFU/mL, 37° C., 10 h. The gist of the method:
as §1

The next experiment has as its system Proteus vulgaris. Put plainly: MIC against Gram-negative bacteria: Proteus vulgaris. As to conditions: for MIC (μg/mL) P. vulgaris / MIC against P. vulgaris: 96-well plate, 5×10^5 CFU/mL, 37° C., 10 h. Put shortly: as §1
The test system of another experiment is Serratia marcescens. In words: MIC against Gram-negative bacteria: Serratia marcescens. Conditions: for MIC (μg/mL) S. marcescens / MIC against S. marcescens: 96-well plate, 5×10^5 CFU/mL, 37° C., 10 h. Put shortly:
as §1

In the experiment on E. coli DH5α, “PRT44 (LYAQVSQSKPCERTGSCFSGRCVNSTCLCDPGWVGDQCQ; listed as Homo sapiens)” gave an MIC of 12.5 µg/mL. Moreover, in the experiment with E. coli BL21 (E. coli BL21), the “MIC (μg/mL) E. coli BL21” value stood at 12.5 µg/mL. In addition, the “MIC (μg/mL) P. aeruginosa” value with Pseudomonas aeruginosa (Pseudomonas aeruginosa) was 25 µg/mL. Further, the “MIC (μg/mL) K. pneumonia” value with Klebsiella pneumonia (Klebsiella pneumonia) is 12.5 µg/mL. Further, the “MIC (μg/mL) E. cloacae” value in the experiment with Enterobacter cloacae (Enterobacter cloacae) amounted to 12.5 µg/mL. Besides, in the experiment with Aeromonas hydrophila (Aeromonas hydrophila), the “MIC (μg/mL) A. hydrophila” value came to 25 µg/mL. Also, in the experiment with Citrobacter diversus (Citrobacter diversus), the “MIC (μg/mL) C. diversus” value worked out at 12.5 µg/mL. Besides, in the experiment with Moraxella catarrhalis (Moraxella catarrhalis), the “MIC (μg/mL) M. catarrhalis” value came out at 25 µg/mL. Further, the “MIC (μg/mL) P. mirabilis” value against Proteus mirabilis (Proteus mirabilis) amounted to 50 µg/mL. Moreover, the “MIC (μg/mL) P. vulgaris” value in the experiment with Proteus vulgaris (Proteus vulgaris) is 25 µg/mL. For the same substance, the “MIC (μg/mL) S. marcescens” value in the experiment on Serratia marcescens (Serratia marcescens) turned out to be 12.5 µg/mL.
As for “PRT519 (CQCNDNLDFSIPGSCDSLSGSCLICKPGTTGRYCELCADGYFGDAVDAKNCQP; listed as Homo sapiens)”, the MIC against E. coli DH5α worked out at 25 µg/mL. In addition, the “MIC against E. coli BL21” value in the experiment on E. coli BL21 is 12.5 µg/mL. Besides, the “MIC against P. aeruginosa” value against Pseudomonas aeruginosa was 12.5 µg/mL. In the experiment with Klebsiella pneumonia, the “MIC against K. pneumonia” value was 25 µg/mL. In the experiment with Enterobacter cloacae, the “MIC against E. cloacae” value was determined as 12.5 µg/mL. In addition, in the experiment on Aeromonas hydrophila, the “MIC against A. hydrophila” value turned out to be 25 µg/mL. Also, the “MIC against C. diversus” value in the experiment with Citrobacter diversus was found to be 12.5 µg/mL. Besides, the “MIC against M. catarrhalis” value against Moraxella catarrhalis stood at 25 µg/mL. Further, the “MIC against P. mirabilis” value in the experiment on Proteus mirabilis was determined as 12.5 µg/mL. Also, the “MIC against P. vulgaris” value in the experiment on Proteus vulgaris was 25 µg/mL. The “MIC against S. marcescens” value in the experiment on Serratia marcescens came out at 12.5 µg/mL.
Take “PRT1313 (VADLCQDGHGGCSEHANCSQVGTMVTCTCLPDYEGDGWSCR; listed as Homo sapiens)”: in the experiment on E. coli DH5α, the minimal inhibitory concentration (MIC) amounted to 12.5 µg/mL. Also, the “MIC against E. coli BL21” value with E. coli BL21 (E. coli BL21) was determined as 25 µg/mL. The “MIC against P. aeruginosa” value in the experiment with Pseudomonas aeruginosa (Pseudomonas aeruginosa) was 50 µg/mL. In addition, the “MIC against K. pneumonia” value in the experiment on Klebsiella pneumonia (Klebsiella pneumonia) came out at 25 µg/mL. Besides, the “MIC against E. cloacae” value in the experiment on Enterobacter cloacae (Enterobacter cloacae) was found to be 12.5 µg/mL. In the experiment with Aeromonas hydrophila (Aeromonas hydrophila), the “MIC against A. hydrophila” value came out at 25 µg/mL. Moreover, the “MIC against C. diversus” value in the experiment with Citrobacter diversus (Citrobacter diversus) was found to be 50 µg/mL. In addition, the “MIC against M. catarrhalis” value against Moraxella catarrhalis (Moraxella catarrhalis) turned out to be 12.5 µg/mL. Further, the “MIC against P. mirabilis” value with Proteus mirabilis (Proteus mirabilis) was 50 µg/mL. For the same substance, the “MIC against P. vulgaris” value in the experiment with Proteus vulgaris (Proteus vulgaris) is 12.5 µg/mL. Also, the “MIC against S. marcescens” value in the experiment on Serratia marcescens (Serratia marcescens) is 50 µg/mL.
Consider “PRT127 (CSGHCTSYGTNCENGGKCLERYHGYSCDCSNTAYDGTFCN; listed as Homo sapiens)”, for which, in the experiment with E. coli DH5α, the MIC is 12.5 µg/mL. In addition, in the experiment on E. coli BL21 (E. coli BL21), the “MIC (μg/mL) E. coli BL21” value was found to be 12.5 µg/mL. The “MIC (μg/mL) P. aeruginosa” value in the experiment on Pseudomonas aeruginosa (Pseudomonas aeruginosa) was 12.5 µg/mL. Further, the “MIC (μg/mL) K. pneumonia” value against Klebsiella pneumonia (Klebsiella pneumonia) worked out at 25 µg/mL. Besides, in the experiment with Enterobacter cloacae (Enterobacter cloacae), the “MIC (μg/mL) E. cloacae” value is 12.5 µg/mL. In the experiment on Aeromonas hydrophila (Aeromonas hydrophila), the “MIC (μg/mL) A. hydrophila” value turned out to be 25 µg/mL. Also, the “MIC (μg/mL) C. diversus” value in the experiment with Citrobacter diversus (Citrobacter diversus) worked out at 12.5 µg/mL. Further, the “MIC (μg/mL) M. catarrhalis” value against Moraxella catarrhalis (Moraxella catarrhalis) came out at 12.5 µg/mL. Moreover, in the experiment on Proteus mirabilis (Proteus mirabilis), the “MIC (μg/mL) P. mirabilis” value is 12.5 µg/mL. Besides, the “MIC (μg/mL) P. vulgaris” value against Proteus vulgaris (Proteus vulgaris) is 12.5 µg/mL. Besides, the “MIC (μg/mL) S. marcescens” value in the experiment on Serratia marcescens (Serratia marcescens) amounted to 12.5 µg/mL.
Regarding “PRT927 (DIDDCSSTPCLNGAKCIDHPNGYECQCATGFTGVLCE; listed as Homo sapiens)”, the MIC against E. coli DH5α amounted to 25 µg/mL; against E. coli BL21 (E. coli BL21, 10 h cultivation at 37° C.), 50 µg/mL; against Pseudomonas aeruginosa (P. aeruginosa, 10 h cultivation at 37° C.), 25 µg/mL; against Klebsiella pneumonia (K. pneumonia, 10 h cultivation at 37° C.), 12.5 µg/mL; in the experiment with Enterobacter cloacae (E. cloacae, 10 h cultivation at 37° C.), 25 µg/mL; in the experiment with Aeromonas hydrophila (A. hydrophila, 10 h cultivation at 37° C.) it was 50 µg/mL. The MIC is 12.5 µg/mL in the experiment with Citrobacter diversus (C. diversus, 10 h cultivation at 37° C.); 50 µg/mL against Moraxella catarrhalis (M. catarrhalis, 10 h cultivation at 37° C.); 25 µg/mL with Proteus mirabilis (P. mirabilis, 10 h cultivation at 37° C.); 12.5 µg/mL in the experiment on Proteus vulgaris (P. vulgaris, 10 h cultivation at 37° C.); 50 µg/mL with Serratia marcescens (S. marcescens, 10 h cultivation at 37° C.).

The MIC is the smallest concentration in the dilution series that meets the test's criterion for growth inhibition. Low values mean a more susceptible organism, high ones a less susceptible organism.
